Data set [1] deals with DSS-induced colitis in Balb/c mice. As to the kind of experiment: DSS-induced colitis in Balb/c mice (Example 7). Particulars: s.c. b.i.d., GL1001 300 mg/kg, sulfasalazine 150 mg/kg. The data set is classed as in vivo. On the procedure:
A study was designed with six groups of Balb/c mice: naïve control, DSS followed by vehicle, DSS followed by GL1001 30 mg/kg/day, DSS followed by GL1001 100 mg/kg/day, DSS followed by GL1001 300 mg/kg/day, and DSS followed by sulfasalazine 150 mg/kg/day. Administration of DSS was via drinking water, from day 1 to day 6 of the study. […] Administration of vehicle, GL1001 and sulfasalazine was subcutaneous, twice daily, from day 6 until termination of the study (day 16).
Body weight of each animal was measured at days 1, 3 and 5 (pre-initiation of GL1001 or sulfasalazine treatment) and at days 7, 9, 11 and 13 (post-initiation of GL1001 or sulfasalazine treatment). On these same days, disease activity measurements were recorded, including: • (a) rectal prolapse (0=no prolapse, 1=partial prolapse, 2=moderate prolapse, 3=full prolapse); • (b) stool consistency (0=solid pellet, 1=semi-solid, 2=soft stool, 3=diarrhea); and • (c) fecal occult blood (0=no blood present, 1=occult blood, 2=gross blood).
At termination of the study, colon length was determined and histological analysis was conducted as in Example 6.

The test system of the next data set is UC. Particulars: cited from earlier work.
Another data set has as its system NF-κB. Particulars: in CD; Guidi et al. (2005); cited from earlier work.
A further data set relates to CD. Particulars: cited from earlier work.

For the compound `O=C(O)c1cc(/N=N/c2ccc(S(=O)(=O)Nc3ccccn3)cc2)ccc1O` [sulfasalazine, reference compound], in data set [1] (day 7), the fecal occult blood entry is “reduces” and the stool consistency entry is listed as “No significant effect”. Besides, in data set [1] (day 9), the percentage weight loss result is recorded as “No significant effect” and the rectal prolapse entry is listed as “reduces”. Further, in data set [1], the “distal colon crypt score” value was “reduces”, the “distal colon inflammation score” value is recorded as “reduces”, the “distal colon total histopathology score” value is recorded as “reduces” and the “reduction in colon length” value was “inhibits reduction”.
As for “Infliximab: anti-TNFα monoclonal antibody”, the response rates in the data set on UC is 50-70%. In addition, in the data set with NF-κB, the NF-κB activity entry is recorded as “decrease”. In addition, in the data set on CD (CD, after a single dose), the “induction of remission rate” value is on record as 50% and the response rate is listed as 80%. The “fistula responds (closes), patients” value in the data set on CD (fistulizing CD) is 68%. In addition, the “patients who develop an abscess” value with CD (in vivo) is recorded as 12%.
